Experimental data reported in publication PMC11582101, “Unlocking the potential: unveiling tyrphostins with Michael-reactive cyanoacrylate motif as promising inhibitors of human 5-lipoxygenase” (Pflugers Archiv, 2024).
Several values for one entry are separate records, joined by “and”; a condition that tells them apart may be missing. Equal entries are not always repeated.

What was measured:
r5-LO_WT = molecular target: T1, r5-LO_WT (Homo sapiens, UniProt P09917); assay: Covalent inhibitor binding by mass spectrometry, r5-LO_WT; details: 20 µM protein, 100 µM compound, at least 1 h RT
T1 construct: made in house; host or cells: E. coli BL21 (DE3)
T1 sequence (P09917 1-674): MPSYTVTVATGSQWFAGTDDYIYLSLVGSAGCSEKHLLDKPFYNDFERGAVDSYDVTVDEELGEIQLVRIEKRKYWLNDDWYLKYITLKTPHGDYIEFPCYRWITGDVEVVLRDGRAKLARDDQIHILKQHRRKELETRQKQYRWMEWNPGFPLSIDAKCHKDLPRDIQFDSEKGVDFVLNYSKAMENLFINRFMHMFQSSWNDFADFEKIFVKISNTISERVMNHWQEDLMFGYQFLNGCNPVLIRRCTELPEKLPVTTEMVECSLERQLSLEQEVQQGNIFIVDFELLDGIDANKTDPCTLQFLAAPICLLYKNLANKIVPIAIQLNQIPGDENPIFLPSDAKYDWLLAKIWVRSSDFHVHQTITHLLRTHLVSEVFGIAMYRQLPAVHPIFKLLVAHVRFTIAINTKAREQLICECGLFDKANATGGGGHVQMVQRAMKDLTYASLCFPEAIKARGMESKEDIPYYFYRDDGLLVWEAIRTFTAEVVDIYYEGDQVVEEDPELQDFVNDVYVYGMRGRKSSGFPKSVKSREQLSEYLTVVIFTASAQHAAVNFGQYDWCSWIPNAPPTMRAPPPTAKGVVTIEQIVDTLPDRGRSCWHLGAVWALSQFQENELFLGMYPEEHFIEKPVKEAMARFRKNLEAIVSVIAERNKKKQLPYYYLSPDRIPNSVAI

Her2/ErbB2 = system: Her2/ErbB2; set-up: method as in PMID 7892601; details: original target of AG879; cited from earlier work
12-LO = molecular target: T2, 12-LO (Homo sapiens, UniProt P18054); assay: 12-HETE formation in platelets; details: 20 µM AA, 2.5 µM A23187, n = 3–6
T2 sequence (P18054 1-663): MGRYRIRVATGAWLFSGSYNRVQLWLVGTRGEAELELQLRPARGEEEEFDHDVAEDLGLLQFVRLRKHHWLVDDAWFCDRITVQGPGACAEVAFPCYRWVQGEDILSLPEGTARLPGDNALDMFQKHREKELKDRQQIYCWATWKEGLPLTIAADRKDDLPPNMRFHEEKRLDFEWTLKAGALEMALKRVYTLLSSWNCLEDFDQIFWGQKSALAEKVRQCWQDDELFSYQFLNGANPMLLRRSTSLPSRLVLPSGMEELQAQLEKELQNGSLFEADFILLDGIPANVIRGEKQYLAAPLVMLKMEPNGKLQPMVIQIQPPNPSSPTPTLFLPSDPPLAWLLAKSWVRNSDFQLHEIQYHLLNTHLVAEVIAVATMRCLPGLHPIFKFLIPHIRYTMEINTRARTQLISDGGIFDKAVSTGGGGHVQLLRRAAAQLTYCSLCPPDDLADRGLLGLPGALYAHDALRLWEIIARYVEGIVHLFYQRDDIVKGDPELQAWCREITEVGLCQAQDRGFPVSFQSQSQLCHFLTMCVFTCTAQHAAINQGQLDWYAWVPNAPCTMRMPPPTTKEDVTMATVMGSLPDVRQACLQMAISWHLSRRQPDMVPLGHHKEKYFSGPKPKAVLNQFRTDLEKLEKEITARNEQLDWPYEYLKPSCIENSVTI

15-LO = assay: 15-HETE formation in intact PMNL; details: read-out: IC50 for inhibition of 15-HETE formation, PMNL; intact PMNL, 20 µM AA, 2.5 µM A23187; (95% CI), n = 3–6
5-LO = molecular target: T3, 5-LO (Homo sapiens, UniProt P09917); assay: 5-LO product formation in intact PMNL; details: IC50 for inhibition of 5-LO product formation, PMNL, intact PMNL, 20 µM AA, 2.5 µM A23187; (95% CI), n = 3–6
T3 sequence (P09917 1-674): T1 sequence (P09917 1-674)

U2OS cells = details: human, 10 µM

CC(C)(C)c1cc(/C=C(\C#N)C(N)=S)cc(C(C)(C)C)c1O [AG879]
inhibitor adducts to r5-LO_WT detected by mass spectrometry (r5-LO_WT): did not detect mass shifts | IC50 (Her2/ErbB2): 1000 nM | IC50 for inhibition of 12-HETE formation, platelets (12-LO): no inhibition | IC50 (15-LO): > 25000 nM | IC50 (5-LO): 400 nM and 420 nM | normalized healthy cell count (U2OS cells): around 75%
